Experiment [1] concerns T1, heme oxygenase (HO).
T1 construct: gene Hmox1; endogenous enzyme in J774A.1 cell homogenate; isoform not specified
The experiment in a line: in vitro HO activity (hemin to bilirubin, spectrophotometric) in cell homogenate; Lineweaver-Burk kinetics. Type of experiment: biochemical.

For experiment [2], the system named is T1, heme oxygenase (HO). The experiment in a line: in vitro HO activity (hemin to bilirubin, spectrophotometric) in cell homogenate. Type of experiment: biochemical.

In turn, `C=C(C)[C@@H]1CCC(C)=C[C@H]1c1c(O)cc(CCCCC)cc1O` [CBD, cannabidiol] registered an IC50 in experiment [1] of 30 µM.
The molecule `CCCCCc1cc(O)c2c(c1)OC(C)(C)[C@@H]1CCC(C)=C[C@@H]21` [THC, tetrahydrocannabinol] returned an IC50 in experiment [2] of 56 µM. That is a double-digit micromolar value.

Usually IC50 stands for the concentration that inhibits the measured activity by half.

The values above are taken from publication PMC7070382, “Cannabidiol Protects Dopaminergic Neurons in Mesencephalic Cultures against the Complex I Inhibitor Rotenone Via Modulation of Heme Oxygenase Activity and Bilirubin” (Antioxidants, 2020).
